{"source": "patent US11407736B2", "about": "(priority 2019, dated 2022)", "key": {"[1]": {"test_system": "U937 cells", "assay": "U937 cell necroptosis assay (TNFa + zVAD, CellTiter-Glo)", "format": "cell-based, human", "how_it_was_run": "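Necroptosis was induced with TNFa at 2 ng/mL final for 18 h at 37 °C, following 1 h compound pre-incubation in the presence of zVAD-fmk (60 uM for U937 plating medium, 40 uM for L929 medium). Luminescent CellTiter-Glo signal gave relative cell survival.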"}, "[2]": {"assay": "in vivo pharmacokinetics, plasma and brain exposure", "conditions": "for Kp: rodents", "source_text": "Brain penetration may be assessed by evaluating free brain/plasma ratio (Bu/Pu) as measured in vivo pharmacokinetic studies in rodents."}, "[3]": {"molecular_target": "RIPK1 (Homo sapiens (Human), UniProt Q13546)", "sequence (Q13546 whole entry, species assumed)": "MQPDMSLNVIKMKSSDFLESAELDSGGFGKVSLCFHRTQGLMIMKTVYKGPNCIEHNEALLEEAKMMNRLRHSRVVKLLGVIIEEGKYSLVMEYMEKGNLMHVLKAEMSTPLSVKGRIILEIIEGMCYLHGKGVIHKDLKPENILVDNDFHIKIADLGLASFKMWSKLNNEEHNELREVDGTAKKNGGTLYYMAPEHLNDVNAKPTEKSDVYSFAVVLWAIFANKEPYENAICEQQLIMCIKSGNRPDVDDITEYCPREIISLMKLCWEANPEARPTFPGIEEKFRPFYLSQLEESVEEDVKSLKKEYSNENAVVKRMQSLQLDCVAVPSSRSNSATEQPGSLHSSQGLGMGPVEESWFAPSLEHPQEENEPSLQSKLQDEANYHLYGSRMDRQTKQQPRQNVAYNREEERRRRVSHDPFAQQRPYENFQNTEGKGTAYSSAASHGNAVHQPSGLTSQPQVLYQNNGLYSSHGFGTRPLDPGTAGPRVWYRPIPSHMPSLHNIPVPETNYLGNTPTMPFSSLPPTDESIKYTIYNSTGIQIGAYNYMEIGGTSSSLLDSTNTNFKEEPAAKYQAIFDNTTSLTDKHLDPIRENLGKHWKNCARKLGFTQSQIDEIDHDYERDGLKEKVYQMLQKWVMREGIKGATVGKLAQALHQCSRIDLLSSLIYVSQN", "assay": "RIPK1 ADP-Glo biochemical kinase assay", "conditions": "read-out: RIPK1 ADP-Glo Kinase (IC50)", "procedure": "The final reaction volume was 5.0ul.\nAdding 5 μl of ADP-Glo™ terminated the reaction."}, "[4]": {"test_system": "L929 cells", "assay": "L929 cell necroptosis assay (TNFa + zVAD, CellTiter-Glo)", "format": "cell-based, murine", "how_it_was_run": "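Necroptosis was read as CellTiter-Glo luminescence 18 hours after TNFa stimulation at 37° C, 5% CO2. Prior to that, L929 cells (10K/well, plated 18 h) received fresh medium with 40 uM zVAD-fmk plus 4-fold serially diluted compound.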"}, "[5]": {"test_system": "TNF-alpha induced hypothermia", "conditions": "dose of 30 mg/kg, according to WO 2014/125444; cited from earlier work"}, "[6]": {"conditions": "Homo sapiens, U-937, U937 cells, TNFa + zVAD, read-out: U937 Zvad TNF CTG Recovery, U937, TNFa + zVAD (IC50)"}, "[7]": {"conditions": "Mus musculus, L929, L929 cells, TNFa + zVAD, read-out: L929-CTG-recovery, L929, TNFa + zVAD (IC50)"}, "[8]": {"conditions": "Homo sapiens, U-937, read-out: U937 Zvad TNF CTG Recovery, U937, TNFa + zVAD (IC50), U937 cells, TNFa + zVAD"}}, "note": "Like-named read-outs stand apart in the source and are kept apart here.", "data": [{"smiles": "COC1(C#Cc2ccc3c(c2)N(C)C(=O)[C@@H](NC(=O)c2cc(Oc4ccccc4)ccn2)CO3)CN(C)C1", "note": "[Compound I-155, (S)—N-(7-((3-methoxy-1-methylazetidin-3-yl)ethynyl)-5-methyl-4-oxo-2,3,4,5-tetrahydrobenzo[b][1,4]oxazepin-3-yl)-4-phenoxypicolinamide]", "values": [{"measurement": "IC50", "setting": "[1]; [6]", "value": 1.3, "unit": "nM"}, {"measurement": "BRAIN AUC0-6", "setting": "[2]", "value": 373}, {"measurement": "Kp", "setting": "[2]; brain/plasma", "value": 1.7}, {"measurement": "IC50", "setting": "[3]", "value": 24.6, "unit": "nM"}, {"measurement": "IC50", "setting": "[4]; [7]", "value": 313, "unit": "nM"}]}, {"smiles": "CN1C(=O)[C@@H](NC(=O)c2cc(Oc3ccccc3)ccn2)COc2ccc(C#CC3(C)COC3)cc21", "note": "[Compound I-127, (S)—N-(5-methyl-7-((3-methyloxetan-3-yl)ethynyl)-4-oxo-2,3,4,5-tetrahydrobenzo[b][1,4]oxazepin-3-yl)-4-phenoxypicolinamide]", "values": [{"measurement": "IC50", "setting": "[1]; [8]", "value": 0.3, "unit": "nM"}, {"measurement": "BRAIN AUC0-6", "setting": "[2]", "value": 160}, {"measurement": "Kp", "setting": "[2]; brain/plasma", "value": 0.98}, {"measurement": "IC50", "setting": "[3]", "value": 29.6, "unit": "nM"}, {"measurement": "IC50", "setting": "[4]; Mus musculus, L929, read-out: L929-CTG-recovery, L929, TNFa + zVAD (IC50), L929 cells, TNFa + zVAD", "value": 40.6, "unit": "nM"}]}, {"smiles": "CN1C(=O)[C@@H](NC(=O)c2cc(Oc3ccccc3)ccn2)COc2ccc(C#CC(C)(C)N)cc21", "note": "[Compound I-139, (S)—N-(7-(3-amino-3-methylbut-1-yn-1-yl)-5-methyl-4-oxo-2,3,4,5-tetrahydrobenzo[b][1,4]oxazepin-3-yl)-4-phenoxypicolinamide]", "values": [{"measurement": "IC50", "setting": "[1]; [8]", "value": 7.7, "unit": "nM"}, {"measurement": "BRAIN AUC0-6", "setting": "[2]", "value": 1100}, {"measurement": "Kp", "setting": "[2]; brain/plasma", "value": 1.29}, {"measurement": "IC50", "setting": "[3]", "value": 21.2, "unit": "nM"}, {"measurement": "IC50", "setting": "[4]; read-out: L929-CTG-recovery, L929, TNFa + zVAD (IC50), L929 cells, TNFa + zVAD", "value": 538, "unit": "nM"}]}, {"smiles": "CN1C(=O)[C@@H](NC(=O)n2cc(Cc3ccc(F)cc3)cn2)COc2ccc(C#CC3(C)COC3)cc21", "note": "[Compound I-180, (S)-4-(4-fluorobenzyl)-N-(5-methyl-7-((3-methyloxetan-3-yl)ethynyl)-4-oxo-2,3,4,5-tetrahydrobenzo[b][1,4]oxazepin-3-yl)-1H-pyrazole-1-carboxamide]", "values": [{"measurement": "BRAIN AUC0-6", "setting": "[2]", "value": 251}, {"measurement": "Kp", "setting": "[2]; brain/plasma", "value": 2.44}]}, {"smiles": "CN1C(=O)[C@@H](NC(=O)n2cc(Cc3ccc(F)cc3)cn2)COc2ccc(N3CC4(CCOCC4)C3)cc21", "note": "[Compound I-184, (S)-4-(4-fluorobenzyl)-N-(5-methyl-4-oxo-7-(7-oxa-2-azaspiro[3.5]nonan-2-yl)-2,3,4,5-tetrahydrobenzo[b][1,4]oxazepin-3-yl)-1H-pyrazole-1-carboxamide]", "values": [{"measurement": "BRAIN AUC0-6", "setting": "[2]", "value": 731}, {"measurement": "Kp", "setting": "[2]; in vivo", "value": 0.93}]}, {"smiles": "CN1C(=O)C(NC(=O)n2cc(Cc3ccccc3)cn2)CCc2ccc(N3CC4(CCOCC4)C3)cc21", "note": "(racemic) [Compound I-182, (±)-4-Benzyl-N-(1-methyl-2-oxo-8-(7-oxa-2-azaspiro[3.5]nonan-2-yl)-2,3,4,5-tetrahydro-1H-benzo[b]azepin-3-yl)-1-pyrazole-1-carboxamide]", "values": [{"measurement": "BRAIN AUC0-6", "setting": "[2]", "value": 157}, {"measurement": "Kp", "setting": "[2]; in vivo", "value": 0.56}]}, {"smiles": "CN1C(=O)[C@@H](NC(=O)c2nnc(Cc3ccccc3)[nH]2)COc2ccccc21", "note": "[(S)-5-benzyl-N-(5-methyl-4-oxo-2,3,4,5-tetrahydrobenzo[b][1,4]oxazepin-3-yl)-4H-1,2,4-triazole-3-carboxamide]", "values": [{"measurement": "inhibition of TNF-alpha induced hypothermia", "setting": "[5]", "value": 93, "unit": "%"}]}, {"smiles": "CN1C(=O)[C@@H](NC(=O)c2nn(Cc3ccccc3)cc2F)COc2ccc(N3CCC4(CCOCC4)C3)cc21", "note": "[Compound I-181, (S)-1-Benzyl-4-fluoro-N-(5-methyl-4-oxo-7-(8-oxa-2-azaspiro[4.5]decan-2-yl)-2,3,4,5-tetrahydrobenzo[b][1,4]oxazepin-3-yl)-1H-pyrazole-3-carboxamide]", "values": [{"measurement": "BRAIN AUC0-6", "setting": "[2]", "value": 456}, {"measurement": "Kp", "setting": "[2]; in vivo", "value": 0.46}]}, {"smiles": "Cc1cccc(C#Cc2ccc3c(c2)N(C)C(=O)[C@@H](NC(=O)n2cc(Cc4ccc(F)cc4)cn2)CO3)n1", "note": "[Compound I-183, (S)-4-(4-fluorobenzyl)-N-(5-methyl-7-((6-methylpyridin-2-yl)ethynyl)-4-oxo-2,3,4,5-tetrahydrobenzo[b][1,4]oxazepin-3-yl)-1H-pyrazole-1-carboxamide]", "values": [{"measurement": "BRAIN AUC0-6", "setting": "[2]", "value": 326}, {"measurement": "Kp", "setting": "[2]; brain/plasma", "value": 0.9}]}, {"smiles": "CN1C(=O)[C@@H](NC(=O)c2nnc(Cc3ccccc3)o2)COc2ccc(C#CC(C)(C)O)cc21", "note": "[Compound I-71, (S)-5-benzyl-N-(7-(3-hydroxy-3-methylbut-1-yn-1-yl)-5-methyl-4-oxo-2,3,4,5-tetrahydrobenzo[b][1,4]oxazepin-3-yl)-1,3,4-oxadiazole-2-carboxamide]", "values": [{"measurement": "IC50", "setting": "[1]; [6]", "value": 0.9, "unit": "nM"}, {"measurement": "IC50", "setting": "[3]", "value": 21.7, "unit": "nM"}, {"measurement": "IC50", "setting": "[4]; [7]", "value": 0.2, "unit": "nM"}]}, {"smiles": "CN1C(=O)[C@@H](NC(=O)c2cc(Cc3ccc(F)cc3)ccn2)COc2ccc(C#CC3(O)COC3)cc21", "note": "[Compound I-126, (S)-4-(4-fluorobenzyl)-N-(7-((3-hydroxyoxetan-3-yl)ethynyl)-5-methyl-4-oxo-2,3,4,5-tetrahydrobenzo[b][1,4]oxazepin-3-yl)picolinamide]", "values": [{"measurement": "IC50", "setting": "[1]; [6]", "value": 3.5, "unit": "nM"}, {"measurement": "IC50", "setting": "[3]", "value": 24.6, "unit": "nM"}, {"measurement": "IC50", "setting": "[4]; [7]", "value": 55.3, "unit": "nM"}]}, {"smiles": "CN1C(=O)[C@@H](NC(=O)c2cc(Oc3ccccc3F)ccn2)COc2ccc(C#CC(C)(C)O)cc21", "note": "[Compound I-103, (S)-4-(2-fluorophenoxy)-N-(7-(3-hydroxy-3-methylbut-1-yn-1-yl)-5-methyl-4-oxo-2,3,4,5-tetrahydrobenzo[b][1,4]oxazepin-3-yl)picolinamide]", "values": [{"measurement": "IC50", "setting": "[1]; [6]", "value": 1.5, "unit": "nM"}, {"measurement": "IC50", "setting": "[3]", "value": 49, "unit": "nM"}, {"measurement": "IC50", "setting": "[4]; [7]", "value": 67.4, "unit": "nM"}]}, {"smiles": "CN1C(=O)[C@@H](NC(=O)c2n[nH]c(Cc3ccccc3)n2)COc2ccc(C#C[Si](C)(C)C)cc21", "note": "[Compound I-97, (S)-5-benzyl-N-(5-methyl-4-oxo-7-((trimethylsilyl)ethynyl)-2,3,4,5-drobenzo[b][1,4]oxazepin-3-yl)-1H-1,2,4-triazole-3-carboxamide]", "values": [{"measurement": "IC50", "setting": "[1]; U937 cells, TNFa + zVAD, read-out: U937 Zvad TNF CTG Recovery, U937, TNFa + zVAD (IC50)", "value": 1.7, "unit": "nM"}, {"measurement": "IC50", "setting": "[3]", "value": 85.8, "unit": "nM"}, {"measurement": "IC50", "setting": "[4]; L929 cells, TNFa + zVAD, read-out: L929-CTG-recovery, L929, TNFa + zVAD (IC50)", "value": 0.9, "unit": "nM"}]}, {"smiles": "CN1C(=O)[C@@H](NC(=O)c2n[nH]c(Cc3ccccc3)n2)COc2ccc(C#CC3(O)CCOCC3)cc21", "note": "[Compound I-55, (S)-5-benzyl-N-(7-((4-hydroxytetrahydro-2H-pyran-4-yl)ethynyl)-5-methyl-4-oxo-2,3,4,5-tetrahydrobenzo[b][1,4]oxazepin-3-yl)-1H-1,2,4-triazole-3-carboxamide]", "values": [{"measurement": "IC50", "setting": "[1]; [6]", "value": 2, "unit": "nM"}, {"measurement": "IC50", "setting": "[3]", "value": 33.7, "unit": "nM"}, {"measurement": "IC50", "setting": "[4]; [7]", "value": 0.6, "unit": "nM"}]}, {"smiles": "CN1C(=O)[C@@H](NC(=O)c2cc(Oc3ccccc3)ccn2)COc2ccc(C#CC3(O)CCC3)cc21", "note": "[Compound I-120, (S)—N-(7-((1-hydroxycyclobutyl)ethynyl)-5-methyl-4-oxo-2,3,4,5-tetrahydrobenzo[b][1,4]oxazepin-3-yl)-4-phenoxypicolinamide]", "values": [{"measurement": "IC50", "setting": "[1]; [6]", "value": 0.5, "unit": "nM"}, {"measurement": "IC50", "setting": "[3]", "value": 29.6, "unit": "nM"}, {"measurement": "IC50", "setting": "[4]; [7]", "value": 61.5, "unit": "nM"}]}, {"smiles": "COC1(C#Cc2ccc3c(c2)N(C)C(=O)[C@@H](NC(=O)c2cc(Oc4ccccc4)ccn2)CO3)COC1", "note": "[Compound I-128, (S)—N-(7-((3-methoxyoxetan-3-yl)ethynyl)-5-methyl-4-oxo-2,3,4,5-tetrahydrobenzo[b][1,4]oxazepin-3-yl)-4-phenoxypicolinamide]", "values": [{"measurement": "IC50", "setting": "[1]; [6]", "value": 0.6, "unit": "nM"}, {"measurement": "IC50", "setting": "[3]", "value": 19.7, "unit": "nM"}, {"measurement": "IC50", "setting": "[4]; [7]", "value": 42.2, "unit": "nM"}]}, {"smiles": "CN1C(=O)[C@@H](NC(=O)c2nnc(C3(c4ccccc4)CC3)o2)COc2ccc(N3CC4(CCOCC4)C3)cc21", "note": "[Compound I-235, (S)—N-(5-methyl-4-oxo-7-(7-oxa-2-azaspiro[3.5]nonan-2-yl)-2,3,4,5-tetrahydrobenzo[b][1,4]oxazepin-3-yl)-5-(1-phenylcyclopropyl)-1,3,4-oxadiazole-2-carboxamide]", "values": [{"measurement": "IC50", "setting": "[1]; [6]", "value": 13.2, "unit": "nM"}, {"measurement": "IC50", "setting": "[3]", "value": 62.1, "unit": "nM"}, {"measurement": "IC50", "setting": "[4]; Mus musculus, L929 cells, TNFa + zVAD, read-out: L929-CTG-recovery, L929, TNFa + zVAD (IC50)", "value": 1070, "unit": "nM"}]}, {"smiles": "CN(C)CC#Cc1ccc2c(c1)N(C)C(=O)[C@@H](NC(=O)c1cc(Oc3ccccc3)ccn1)CO2", "note": "[II-36, (S)—N-(7-(3-(dimethylamino)prop-1-yn-1-yl)-5-methyl-4-oxo-2,3,4,5-tetrahydrobenzo[b][1,4]oxazepin-3-yl)-4-phenoxypicolinamide]", "values": [{"measurement": "IC50", "setting": "[1]; [6]", "value": 1.6, "unit": "nM"}, {"measurement": "IC50", "setting": "[3]", "value": 38.9, "unit": "nM"}, {"measurement": "IC50", "setting": "[4]; [7]", "value": 132, "unit": "nM"}]}]}
